According to patent publication US20210323977A1, “PYRROLIDINYL AMIDE COMPOUNDS FOR THE TREATMENT OF AUTOIMMUNE DISEASE” (Hoffmann-La Roche Inc., priority 2018, published 2021):

Each compound was assayed against T1, human TLR7 (Homo sapiens, UniProt Q9NYK1) (assay: HEK293-Blue-hTLR-7 cells assay). Details: HEK293-Blue-hTLR7 cells, SEAP reporter, R848 stimulation, 20 hrs.
T1 sequence (Q9NYK1 27-1049): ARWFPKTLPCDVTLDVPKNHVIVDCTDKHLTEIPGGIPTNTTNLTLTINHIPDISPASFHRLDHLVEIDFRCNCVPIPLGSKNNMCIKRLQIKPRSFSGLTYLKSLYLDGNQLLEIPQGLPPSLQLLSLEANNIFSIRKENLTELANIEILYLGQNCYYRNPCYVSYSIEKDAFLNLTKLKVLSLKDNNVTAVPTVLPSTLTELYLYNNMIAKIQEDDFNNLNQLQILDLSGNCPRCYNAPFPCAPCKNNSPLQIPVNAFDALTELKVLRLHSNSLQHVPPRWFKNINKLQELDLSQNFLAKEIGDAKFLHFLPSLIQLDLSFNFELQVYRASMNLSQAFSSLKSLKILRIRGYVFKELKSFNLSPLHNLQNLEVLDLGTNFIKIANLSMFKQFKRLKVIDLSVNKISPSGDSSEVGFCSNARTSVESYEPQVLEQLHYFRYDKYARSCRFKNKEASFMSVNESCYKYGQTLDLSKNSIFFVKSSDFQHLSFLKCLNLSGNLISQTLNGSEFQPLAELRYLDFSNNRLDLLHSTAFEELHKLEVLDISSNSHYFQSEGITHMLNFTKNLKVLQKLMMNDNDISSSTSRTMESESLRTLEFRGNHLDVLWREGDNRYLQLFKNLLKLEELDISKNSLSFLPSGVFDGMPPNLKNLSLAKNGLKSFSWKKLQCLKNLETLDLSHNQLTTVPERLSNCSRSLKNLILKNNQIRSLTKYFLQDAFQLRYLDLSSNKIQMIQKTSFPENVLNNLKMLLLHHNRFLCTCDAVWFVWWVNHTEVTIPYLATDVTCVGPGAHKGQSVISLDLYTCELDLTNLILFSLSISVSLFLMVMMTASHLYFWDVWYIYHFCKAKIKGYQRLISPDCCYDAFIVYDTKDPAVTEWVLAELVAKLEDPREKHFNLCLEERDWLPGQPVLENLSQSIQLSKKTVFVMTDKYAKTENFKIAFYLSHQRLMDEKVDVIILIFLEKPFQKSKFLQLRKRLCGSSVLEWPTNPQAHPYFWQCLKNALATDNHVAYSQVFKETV
Assay type: cell-based
From the text: HEK293-Blue-hTLR-7 Cells Assay:
A stable HEK293-Blue-hTLR-7 cell line was purchased from InvivoGen (Cat. #: hkb-htlr7, San Diego, Calif., USA). These cells were originally designed for studying the stimulation of human TLR7 by monitoring the activation of NF-κB. A SEAP (secreted embryonic alkaline phosphatase) reporter gene was placed under the control of the IFN-β minimal promoter fused to five NF-κB and AP-1-binding sites. The SEAP was induced by activating NF-κB and AP-1 via stimulating HEK-Blue hTLR7 cells with TLR7 ligands. Therefore the reporter expression was declined by TLR7 antagonist under the stimulation of a ligand, such as R848 (Resiquimod), for incubation of 20 hrs. The cell culture supernatant SEAP reporter activity was determined using QUANTI-Blue™ kit (Cat. #: rep-qb1, Invivogen, San Diego, Ca, USA) at a wavelength of 640 nm, a detection medium that turns purple or blue in the presence of alkaline phosphatase.
HEK293-Blue-hTLR7 cells were incubated at a density of 250,000˜450,000 cells/mL in a volume of 170 μL in a 96-well plate in Dulbecco's Modified Eagle's medium (DMEM) containing 4.5 g/L glucose, 50 U/mL penicillin, […], […], 2 mM L-glutamine, 10% (v/v) heat-inactivated fetal bovine serum with addition of 20 sL test compound in a serial dilution in the presence of final DMSO at 1% and 10 μL of 20 uM R848 in above DMEM, perform incubation under 37° C. in a CO2 incubator for 20 hrs. Then 20 μL of the supernatant from each well was incubated with 180 sL Quanti-blue substrate solution at 37° C. for 2 hrs and the absorbance was read at 620-655 nm using a spectrophotometer. The signalling pathway that TLR7 activation leads to downstream NF-κB activation has been widely accepted, and therefore similar reporter assay was modified for evaluating TLR7 antagonist.

| Structure (SMILES) | IC50 |
| --- | --- |
| N#Cc1ccc(N2C[C@@H](C(F)(F)F)[C@H](C(=O)N[C@H]3CNC[C@H]3F)C2)c2cccnc12 [Example 47, Trans-1-(8-cyano-5-quinolyl)-N-[(3S,4R)-4-fluoropyrrolidin-3-yl]-4-(trifluoromethyl)pyrrolidine-3-carboxamide] | 124 nM |
| C[C@H]1CN(c2ccc(Cl)c3ncccc23)C[C@@H]1C(=O)NC1CCN(C)CC1 [Example 50, (3R,4R)-1-(8-chloro-5-quinolyl)-4-methyl-N-(1-methyl-4-piperidyl)pyrrolidine-3-carboxamide] | 178 nM |
| CN1CCCC(CNC(=O)C2CN(c3ccc(C#N)c4ncccc34)CC23CC3)C1 (centres unmarked) [Example 51, 5-(8-Cyano-5-quinolyl)-N-[(1-methyl-3-piperidyl)methyl]-5-azaspiro[2.4]heptane-7-carboxamide] | 201 nM |
| C[C@@H]1CN(c2ccc(C#N)c3ncccc23)C[C@H]1C(=O)N[C@H]1CNC[C@H]1F [Example 56, Trans-1-(8-cyano-5-quinolyl)-N-[(3S,4R)-4-fluoropyrrolidin-3-yl]-4-methyl-pyrrolidine-3-carboxamide] | 282 nM |
| C[C@H]1CN(c2ccc(C#N)c3nccnc23)C[C@@H]1C(=O)NC1CCN(C2CCNCC2)CC1 [Example 60, (3R,4R)-1-(8-cyanoquinoxalin-5-yl)-4-methyl-N-[1-(4-piperidyl)-4-piperidyl]pyrrolidine-3-carboxamide] | 492 nM |
